According to patent US10282514B2, “Method of constructing a data architecture” (The Procter & Gamble Company, priority 2012, dated 2019):

Columns and labels:
[1] = system: tert-Keratinocyte (tKC) cell line; experiment: C-map query with the tone composite benchmark signature; assay type: cell-based, human; conditions: composite signature of Niacinamide, Sepiwhite, NAG, Hexamidine
Method: (§1) Individual experiments (referred to as batches) generally comprise 30 to 96 samples analyzed using Affymetrix GeneChip® technology platforms, containing 6 replicates of the vehicle control (e.g., DSMO), 2 replicate samples of a positive control that gives a strong reproducible effect in the cell type used, and samples of the test material/perturbagen. Replication of the test material is done in separate batches due to batch effects. In vitro testing was performed in 6-well plates to provide sufficient RNA for GeneChip® analysis (2-4 μg total RNA yield/well).
Human telomerized keratinocytes (tKC) were obtained from the University of Texas, Southwestern Medical Center, Dallas, Tex. tKC cells were grown in EpiLife® media with 1× Human Keratinocyte Growth Supplement (Invitrogen, Carlsbad, Calif.) on collagen I coated cell culture flasks and plates (Becton Dickinson, Franklin Lakes, N.J.). Keratinocytes were seeded into 6-well plates at 20,000 cells/cm^2 24 hours before chemical exposure. Human skin fibroblasts (BJ cell line from ATCC, Manassas, Va.) were grown in Eagle's Minimal Essential Medium (ATCC) supplemented with 10% fetal bovine serum (HyClone, Logan, Utah) in normal cell culture flasks and plates (Corning, Lowell, Mass.). BJ fibroblasts were seeded into 6-well plates at 12,000 cells/cm^2 24 hours before chemical exposure. […]

hyperpigmented spots = experiment: 9-week randomized, double-blind, vehicle-controlled, split-face tone benefit study; assay type: in vivo, human; conditions: 0.05% in SC-99 vehicle, compared to vehicle
Text: This Example provides evidence of the advantages of using composite signatures and illustrates clinical affirmation of the C-map model for predicting efficacy of skin-lightening agents. This Example supports embodiments related to composite signatures (as described at the end of Example 3). An illustrative “Skin Tone” Signature developed from a genomics study using a composite skin-lightening benchmark agent signature is derived from Niacinamide, Hexamidine, Sepiwhite, and NAG. The signature is used to query C-map and generate a list of potential skin-lightening agents. A top hit, Chlorhexidine Diactate (CD) is entered into clinical testing for confirmation of efficacy. The control for clinical efficacy is a 5% Niacinamide+1% Sepiwhite formulation in the control vehicle.
Primary endpoints are changes in color spot area fraction (image analysis) and melanin spot area fraction (NC2) from baseline. Secondary endpoints are changes from baseline in L*a*b (color image analysis), mean melanin gray scale (NC2), and melanin evenness (NC2). Texture area fraction and pore area fraction are also evaluated to explore impact on other aspects relating to overall skin tone. […] Statistically significant superiority to the high efficacy benchmark skin active agent to vehicle performance is the clinical success criteria.
Study Design: The experimental protocol included a 9-week (1-week preconditioning & 8-week treatment), randomized, double-blind, round robin, vehicle-controlled, split-face tone benefit study. The subject population included 330 Chinese females, 25-55 years old with hyperpigmented spots. 318 subjects completed the entire study. […] Olay Complete SPF 15 UV Moisturizing Lotion is concomitantly used during pre-conditioning and treatment. 0.5 g each test product per half-face (forehead to jaw line; ˜4 mg/cm^2) is dosed 2× a day (morning/evening). Color SAF and treatment area, Melanin SAF, gray scale, evenness by NC2, and additional measurement of Fine Lines and Wrinkle and Texture are by REAL 3.01A. Data collection points include baseline, and ends of weeks 4, 6 and 8. […]

[2] = system: teleomerized human keratinocytes (tKC); experiment: C-map query with the Retinoic Acid/Keratinocyte 200 benchmark signature; assay type: cell-based; conditions: Retinoic Acid Keratinocyte RA_200 signature
Method: as §1
Human telomerized keratinocytes (tKC) were obtained from the University of Texas, Southwestern Medical Center, Dallas, Tex. tKC cells were grown in EpiLife® media with 1× Human Keratinocyte Growth Supplement (Invitrogen, Carlsbad, Calif.) on collagen I coated cell culture flasks and plates (Becton Dickinson, Franklin Lakes, N.J.). Keratinocytes were seeded into 6-well plates at 20,000 cells/cm^2 24 hours before chemical exposure. […]
(a) Tert-keratinocytes (tKC) RA Signatures. […] Cells were treated with 1 uM tRA for 6 hr, tested in triplicate, with triplicate DMSO controls, and analyzed on HG-U133A GeneChips. […]

| SMILES | connectivity to tone composite benchmark signature query [1] | Basal skin tone (hyperpigmented spots; week 8) | NC2 Melanin evenness test (hyperpigmented spots; weeks 6 and 8) | spot area fraction color test (hyperpigmented spots; topical 2x a day, week 8) | average C-map score [2] |
| --- | --- | --- | --- | --- | --- |
| CC(=O)O.CC(=O)O.NC(=N\CCCCCC/N=C(N)/N=C(\N)Nc1ccc(Cl)cc1)/N=C(\N)Nc1ccc(Cl)cc1 [CD, Chlorhexidine Diacetate] | top connectivity hit | superiority | superiority to the vehicle | significantly fewer spots | – |
| CC1=C(/C=C/C(C)=C/C=C/C(C)=C/C(=O)O)C(C)(C)CCC1 [Retinoic acid, all-trans-retinoic acid] | – | – | – | – | highest score |
